From publication PMC9952270, “Mitochondrial Peroxiredoxin 3 Is Rapidly Oxidized and Hyperoxidized by Fatty Acid Hydroperoxides” (Antioxidants, 2023)
Values belong to the molecule of their own block, whether it stands above or below them.

Columns and labels:
[1] = molecular target: T1, HsPrx3 (human peroxiredoxin 3, wtHsPrx3) (Homo sapiens, UniProt P30048); assay: stopped-flow intrinsic fluorescence, slope of kobs of second phase; type: biochemical; details: rate constant of peroxidatic Cys hyperoxidation; covalent oxidation, inactivating; pH 7.8, 11–12 °C, 50 mM sodium phosphate, 0.1 mM DTPA
T1 construct: gene PRDX3; three additional N-terminal Gly; E. coli BL21 Star (DE3); reduced subunit predicted 21,797 Da; three Cys; dodecamer when reduced
T1 sequence (P30048 62-256): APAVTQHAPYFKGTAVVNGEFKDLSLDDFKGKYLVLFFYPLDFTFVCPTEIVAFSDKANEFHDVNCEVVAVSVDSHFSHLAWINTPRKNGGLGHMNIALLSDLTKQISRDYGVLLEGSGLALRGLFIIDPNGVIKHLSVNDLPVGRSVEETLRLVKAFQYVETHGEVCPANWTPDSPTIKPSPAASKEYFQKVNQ
Excerpt: stopped-flow intrinsic fluorescence, slope of kobs of second phase on HsPrx3 (human peroxiredoxin 3, wtHsPrx3)

[2] = molecular target: T1, HsPrx3 (human peroxiredoxin 3, wtHsPrx3); assay: intrinsic tryptophan fluorescence quenching / FRET titration, hyperbolic fit; type: binding
[3] = molecular target: T1, HsPrx3 (human peroxiredoxin 3, wtHsPrx3); assay: thermal unfolding by intrinsic fluorescence; type: binding; details: reduced HsPrx3 4 µM, AA 10 µM, 2 mM DTT, 50 mM phosphate, 0.1 mM DTPA, pH 7.8
[4] = molecular target: the molecule itself; assay: ESI mass spectrometry of the intact protein after C4 HPLC; reduced HsPrx3 (10 µM) in 50 mM phosphate buffer plus 0.1 mM DTPA, pH 7.8, 25 °C, exposed to H2O2 (20 µM) or 15(S)-HpEPE (10 or 20 µM), alkylated with 2-iodoacetamide (5 mM); disulfide-bonded dimer

khyperox. (M^-1s^-1) [1]: (2.6 ± 0.4) × 10^7 M^−1s^−1
Molecule: CC/C=C\C[C@@H](/C=C/C=C\C/C=C\C/C=C\CCCC(=O)O)OO [15(S)-HpEPE, 15S-hydroperoxy-5Z,8Z,11Z,13E,17Z-eicosapentaenoic acid]

Kd [2]: 65 ± 4 µM
Molecule: O=S(=O)(O)c1cccc2cccc(Nc3ccccc3)c12 [ANS, 8-anilino-1-naphtalene sulfonic acid]

Tm shift [3]: ~ 4 °C
Molecule: CCCCC/C=C\C/C=C\C/C=C\C/C=C\CCCC(=O)O [AA]

khyperox. (M^-1s^-1) [1]: (3.1 ± 0.7) × 10^5 M^−1s^−1
Molecule: CCCCC[C@@H](/C=C/[C@@H]1[C@@H](C/C=C\CCCC(=O)O)[C@@H]2C[C@H]1OO2)OO [PGG2, 9α,11α-epidioxy-15S-hydroperoxy-prosta-5Z,13E-dien-1-oic acid]

khyperox. (M^-1s^-1) [1]: (1.7 ± 0.1) × 10^7 M^−1s^−1
Molecule: CCCCC[C@@H](/C=C/C=C\C/C=C\C/C=C\CCCC(=O)O)OO [15(S)-HpETE, 15S-hydroperoxy-5Z,8Z,11Z,13E-eicosatetraenoic acid]

B1: Human peroxiredoxin 3 (wild type, recombinant, lacking the mitochondrial targeting sequence) (enzyme)
chain: GGGAPAVTQHAPYFKGTAVVNGEFKDLSLDDFKGKYLVLFFYPLDFTFVCPTEIVAFSDKANEFHDVNCEVVAVSVDSHFSHLAWINTPRKNGGLGHMNIALLSDLTKQISRDYGVLLEGSGLALRGLFIIDPNGVIKHLSVNDLPVGRSVEETLRLVKAFQYVETHGEVCPANWTPDSPTIKPSPAASKEYFQKVNQ
notes: predicted molecular weight of the reduced subunit 21,797 Da; Samples were alkylated (NEM or 2-iodoacetamide) before analysis; also called HsPrx3; wtHsPrx3; source: E. coli BL21 Star (DE3), purified as previously reported [13]
stoichiometry N [4]: 2
